Experimental data from PubChem BioAssay (NCI).
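Method: 48-hour compound exposure of cells in 96-well plates, five concentrations, linear interpolation of endpoints. Here, GI50 denotes the concentration required for 50% inhibition of growth. TGI marks complete inhibition of growth.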

Columns and labels:
Test in all cases: growth of human tumour cells (NCI), 48 h
HCT-116 colon = test system: HCT-116 colon
UACC-62 melanoma = test system: UACC-62 melanoma
U251 CNS = test system: U251 CNS
OVCAR-3 ovarian = test system: OVCAR-3 ovarian
T-47D breast = test system: T-47D breast
SNB-19 CNS = test system: SNB-19 CNS
MDA-MB-435 = test system: MDA-MB-435
SR leukemia = test system: SR leukemia
SF-295 CNS = test system: SF-295 CNS
SW-620 colon = test system: SW-620 colon
OVCAR-4 ovarian = test system: OVCAR-4 ovarian
MALME-3M melanoma = test system: MALME-3M melanoma
RPMI-8226 leukemia = test system: RPMI-8226 leukemia
COLO 205 colon = test system: COLO 205 colon
NCI-H23 lung = test system: NCI-H23 lung
ACHN renal = test system: ACHN renal
CAKI-1 renal = test system: CAKI-1 renal
OVCAR-8 ovarian = test system: OVCAR-8 ovarian
SK-MEL-28 melanoma = test system: SK-MEL-28 melanoma
MCF7 breast = test system: MCF7 breast
SK-MEL-5 melanoma = test system: SK-MEL-5 melanoma
SK-MEL-2 melanoma = test system: SK-MEL-2 melanoma
NCI-H226 lung = test system: NCI-H226 lung
HOP-92 NSCLC = test system: HOP-92 NSCLC
HCT-15 colon = test system: HCT-15 colon
MOLT-4 leukemia = test system: MOLT-4 leukemia
SN12C renal = test system: SN12C renal
TK-10 renal = test system: TK-10 renal
SF-268 CNS = test system: SF-268 CNS
UO-31 renal = test system: UO-31 renal
PC-3 prostate = test system: PC-3 prostate
A549 NSCLC = test system: A549 NSCLC
IGROV1 ovarian = test system: IGROV1 ovarian
MDA-MB-231 breast = test system: MDA-MB-231 breast
SK-OV-3 ovarian = test system: SK-OV-3 ovarian
RXF 393 renal = test system: RXF 393 renal
HOP-62 NSCLC = test system: HOP-62 NSCLC
UACC-257 melanoma = test system: UACC-257 melanoma
SF-539 CNS = test system: SF-539 CNS
KM12 colon = test system: KM12 colon
K-562 leukemia = test system: K-562 leukemia
LOX IMVI melanoma = test system: LOX IMVI melanoma
SNB-75 CNS = test system: SNB-75 CNS
BT-549 breast = test system: BT-549 breast
HCC-2998 colon = test system: HCC-2998 colon
HT29 colon = test system: HT29 colon
CCRF-CEM leukemia = test system: CCRF-CEM leukemia
NCI-H460 lung = test system: NCI-H460 lung
786-0 renal = test system: 786-0 renal
NCI/ADR-RES ovarian = test system: NCI/ADR-RES ovarian
DU-145 prostate = test system: DU-145 prostate
HL-60(TB) leukemia = test system: HL-60(TB) leukemia
HS 578T breast = test system: HS 578T breast
M14 melanoma = test system: M14 melanoma
NCI-H522 lung = test system: NCI-H522 lung
EKVX NSCLC = test system: EKVX NSCLC
OVCAR-5 ovarian = test system: OVCAR-5 ovarian
A498 renal = test system: A498 renal
MDA-N = test system: MDA-N

CC/C(Cc1ccccc1)=C(\c1ccc(OCCN2CCCCCC2)cc1)c1ccc(OC(=O)NCc2ccccc2)cc1
GI50 (HCT-116 colon): 0.895 µM
TGI (HCT-116 colon): 1.63 µM
GI50 (UACC-62 melanoma): 6.38 µM
TGI (UACC-62 melanoma): 13 µM
GI50 (U251 CNS): 1.77 µM
TGI (U251 CNS): 5.48 µM
GI50 (OVCAR-3 ovarian): 1.86 µM
TGI (OVCAR-3 ovarian): 7.13 µM
GI50 (T-47D breast): 0.916 µM
TGI (T-47D breast): 7.91 µM
GI50 (SNB-19 CNS): 3.7 µM
TGI (SNB-19 CNS): 10.4 µM
GI50 (MDA-MB-435): 1.54 µM
TGI (MDA-MB-435): 5.08 µM
GI50 (SR leukemia): 0.821 µM
TGI (SR leukemia): 2.2 µM
GI50 (SF-295 CNS): 6.5 µM
TGI (SF-295 CNS): 13.2 µM
GI50 (SW-620 colon): 1.16 µM
TGI (SW-620 colon): 2.49 µM
GI50 (OVCAR-4 ovarian): 1.61 µM
TGI (OVCAR-4 ovarian): 6.03 µM
GI50 (MALME-3M melanoma): 0.951 µM
TGI (MALME-3M melanoma): 1.94 µM
GI50 (RPMI-8226 leukemia): 1.16 µM
TGI (RPMI-8226 leukemia): 2.87 µM
GI50 (COLO 205 colon): 1.01 µM
TGI (COLO 205 colon): 1.99 µM
GI50 (NCI-H23 lung): 5.89 µM
TGI (NCI-H23 lung): 13.8 µM
GI50 (ACHN renal): 1.49 µM
TGI (ACHN renal): 5.34 µM
GI50 (CAKI-1 renal): 4.52 µM
TGI (CAKI-1 renal): 10.5 µM
GI50 (OVCAR-8 ovarian): 1.67 µM
TGI (OVCAR-8 ovarian): 4.96 µM
GI50 (SK-MEL-28 melanoma): 1.44 µM
TGI (SK-MEL-28 melanoma): 5.17 µM
GI50 (MCF7 breast): 0.25 µM
TGI (MCF7 breast): 5.33 µM
GI50 (SK-MEL-5 melanoma): 1 µM
TGI (SK-MEL-5 melanoma): 2 µM
GI50 (SK-MEL-2 melanoma): 8.65 µM
TGI (SK-MEL-2 melanoma): 17.7 µM
GI50 (NCI-H226 lung): 8.14 µM
TGI (NCI-H226 lung): 17.5 µM
GI50 (HOP-92 NSCLC): 3 µM
TGI (HOP-92 NSCLC): 9.93 µM
GI50 (HCT-15 colon): 1.07 µM
TGI (HCT-15 colon): 2.94 µM
GI50 (MOLT-4 leukemia): 1.15 µM
TGI (MOLT-4 leukemia): 3.78 µM
GI50 (SN12C renal): 1.83 µM
TGI (SN12C renal): 6.71 µM
GI50 (TK-10 renal): 8.2 µM
TGI (TK-10 renal): 16 µM
GI50 (SF-268 CNS): 4.23 µM
TGI (SF-268 CNS): 11.3 µM
GI50 (UO-31 renal): 2.03 µM
TGI (UO-31 renal): 7.98 µM
GI50 (PC-3 prostate): 2.3 µM
TGI (PC-3 prostate): 8.36 µM
GI50 (A549 NSCLC): 2.48 µM
TGI (A549 NSCLC): 8.64 µM
GI50 (IGROV1 ovarian): 2.31 µM
TGI (IGROV1 ovarian): 8.82 µM
GI50 (MDA-MB-231 breast): 2.59 µM
TGI (MDA-MB-231 breast): 9.02 µM
GI50 (SK-OV-3 ovarian): 7.59 µM
TGI (SK-OV-3 ovarian): 15.2 µM
GI50 (RXF 393 renal): 1.31 µM
TGI (RXF 393 renal): 3.35 µM
GI50 (HOP-62 NSCLC): 7.02 µM
TGI (HOP-62 NSCLC): 14.5 µM
GI50 (UACC-257 melanoma): 3.8 µM
TGI (UACC-257 melanoma): 11.3 µM
GI50 (SF-539 CNS): 2.43 µM
TGI (SF-539 CNS): 8.84 µM
GI50 (KM12 colon): 1.61 µM
TGI (KM12 colon): 5.49 µM
GI50 (K-562 leukemia): 0.898 µM
TGI (K-562 leukemia): 2.33 µM
GI50 (LOX IMVI melanoma): 0.924 µM
TGI (LOX IMVI melanoma): 1.75 µM
GI50 (SNB-75 CNS): 6.09 µM
TGI (SNB-75 CNS): 13.2 µM
GI50 (BT-549 breast): 6.74 µM
TGI (BT-549 breast): 14.1 µM
GI50 (HCC-2998 colon): 2.01 µM
TGI (HCC-2998 colon): 8.05 µM
GI50 (HT29 colon): 1.34 µM
TGI (HT29 colon): 3.53 µM
GI50 (CCRF-CEM leukemia): 1.56 µM
TGI (CCRF-CEM leukemia): 5.72 µM
GI50 (NCI-H460 lung): 0.966 µM
TGI (NCI-H460 lung): 1.83 µM
GI50 (786-0 renal): 1.38 µM
TGI (786-0 renal): 4.43 µM
GI50 (NCI/ADR-RES ovarian): 3.9 µM
TGI (NCI/ADR-RES ovarian): 12.3 µM
GI50 (DU-145 prostate): 3.52 µM
TGI (DU-145 prostate): 10.3 µM
GI50 (HL-60(TB) leukemia): 1.18 µM
TGI (HL-60(TB) leukemia): 3.44 µM
GI50 (HS 578T breast): 2.66 µM
TGI (HS 578T breast): 11.8 µM
GI50 (M14 melanoma): 1.06 µM
TGI (M14 melanoma): 2.55 µM
GI50 (NCI-H522 lung): 1.9 µM
TGI (NCI-H522 lung): 7.35 µM
GI50 (EKVX NSCLC): 6.29 µM
TGI (EKVX NSCLC): 14.1 µM
GI50 (OVCAR-5 ovarian): 6.2 µM
TGI (OVCAR-5 ovarian): 12.8 µM

CCOC(=O)c1cn(-c2ccccc2)c(=S)n2c1nc1ccccc12
TGI (HCT-116 colon): > 100 µM
TGI (UACC-62 melanoma): > 100 µM
TGI (U251 CNS): > 100 µM
TGI (OVCAR-3 ovarian): > 100 µM
TGI (A498 renal): > 100 µM
TGI (T-47D breast): > 100 µM
TGI (SNB-19 CNS): > 100 µM
TGI (MDA-MB-435): > 94.8 µM
TGI (SR leukemia): 84.6 µM
TGI (SF-295 CNS): > 100 µM
TGI (SW-620 colon): > 100 µM
TGI (OVCAR-4 ovarian): > 100 µM
TGI (RPMI-8226 leukemia): > 100 µM
TGI (COLO 205 colon): > 64.8 µM
TGI (NCI-H23 lung): > 100 µM
TGI (ACHN renal): > 100 µM
TGI (CAKI-1 renal): > 100 µM
TGI (OVCAR-8 ovarian): > 100 µM
TGI (SK-MEL-28 melanoma): > 73.4 µM
TGI (MCF7 breast): > 100 µM
TGI (SK-MEL-5 melanoma): > 89.6 µM
TGI (SK-MEL-2 melanoma): > 100 µM
TGI (NCI-H226 lung): > 88.1 µM
TGI (HOP-92 NSCLC): 47.7 µM
TGI (HCT-15 colon): > 100 µM
TGI (MOLT-4 leukemia): 17.5 µM
TGI (SN12C renal): > 100 µM
TGI (TK-10 renal): > 100 µM
TGI (SF-268 CNS): 94.9 µM
TGI (PC-3 prostate): > 90 µM
TGI (A549 NSCLC): > 100 µM
TGI (IGROV1 ovarian): > 100 µM
TGI (MDA-MB-231 breast): > 100 µM
TGI (SK-OV-3 ovarian): > 100 µM
TGI (RXF 393 renal): > 100 µM
TGI (HOP-62 NSCLC): > 100 µM
TGI (UACC-257 melanoma): > 100 µM
TGI (SF-539 CNS): > 100 µM
TGI (KM12 colon): > 100 µM
TGI (K-562 leukemia): > 100 µM
TGI (LOX IMVI melanoma): > 100 µM
TGI (SNB-75 CNS): > 100 µM
TGI (BT-549 breast): > 100 µM
TGI (HCC-2998 colon): 96.9 µM
TGI (HT29 colon): > 90.8 µM
TGI (CCRF-CEM leukemia): 65.3 µM
TGI (NCI-H460 lung): > 100 µM
TGI (MDA-N): > 100 µM
TGI (786-0 renal): > 100 µM
TGI (NCI/ADR-RES ovarian): > 100 µM
TGI (DU-145 prostate): > 100 µM
TGI (M14 melanoma): > 100 µM
TGI (EKVX NSCLC): > 100 µM
TGI (OVCAR-5 ovarian): > 100 µM
